The record followed here is ChEMBL document CHEMBL4342427, “A new chemotype with promise against Trypanosoma cruzi” (Bioorg Med Chem Lett, 2020).

Data set [1] concerns Trypanosoma cruzi. Kind of data set: Antitrypanosomal activity against Trypanosoma cruzi Tulahuen 20A trypomastigote expressing GFP infected in BALB/c mouse cardiomyocytes assessed as reduction in parasitemia measured after 72 hrs by fluorescence assay. The format is functional, organism-based.
The nature of data set [2]: Intrinsic clearance in mouse liver microsomes assessed per mg protein measured up to 60 mins in presence of NADPH. The format is ADME, Microsome. As to conditions: 1 h. In general terms: Liver microsomes are vesicles of endoplasmic reticulum, rich in cytochrome P450 enzymes.
In the next data set the test system is HEK-293T. Description: Cytotoxicity against human HEK293T cells assessed as cell growth inhibition. The format is cell-based.
A further data set deals with HFF. Description: Cytotoxicity against human HFF cells assessed as cell growth inhibition. The format is cell-based.
For data set [3], the target named is T1, Sterol 14-alpha demethylase (Trypanosoma cruzi (strain CL Brener), UniProt Q7Z1V1). Kind of data set: (§1) Binding affinity to full length Trypanosoma cruzi Tulahuen C4 C-terminal His-tagged CYP51 expressed in Escherichia coli HMS174 (DE3) assessed as induction of shift in Soret band by spectrophotometry.
Data set [4] relates to Trypanosoma brucei rhodesiense. Description: Antiprotozoal activity against Trypanosoma brucei rhodesiense STIB900 […] assessed as growth inhibition after 72 hrs by Alamar Blue dye-based fluorometric analysis. It counts as functional, organism-based. As to conditions: STIB900, 72 h. Background: Alamar Blue is a resazurin reagent that responds to reducing activity.

The subject of data set [5] is Trypanosoma cruzi. Kind of data set: Antitrypanosomal activity against Trypanosoma cruzi Tulahuen C4 trypomastigotes infected in rat L6 cells measured after 96 hrs by inverted microscopy analysis. The format is functional, organism-based. To be noted: Tulahuen C4, L6, 96 h.
A short description of data set [6]: n-octanol/aqueous buffer distribution coefficient, log D of compound at pH 7.4 by HPLC analysis. It counts as physicochemical.
The test system of a further data set is Plasmodium falciparum. Description: Antiprotozoal activity against Plasmodium falciparum NF54 assessed as reduction in [3H]hypoxanthine incorporation preincubated for 48 hrs followed by [3H]hypoxanthine addition and measured after 24 hrs by liquid scintillation counting method. The format is functional, organism-based.
Data set [7] can be described thus: Intrinsic clearance in human liver microsomes assessed per mg protein measured up to 60 mins in presence of NADPH. It counts as ADME, Microsome. To be noted: for microsomal CLint: liver microsomes.
A short description of data set [8]: Cytotoxicity against human HC04 cells assessed as cell growth inhibition. It counts as cell-based.
A short description of data set [9]: Kinetic solubility in phosphate buffer at pH 6.5 by nephelometry. To be noted: read-out: Kinetic_solubility.
Data set [10] is described as follows: Protein binding in human plasma by HPLC analysis. It counts as ADME, cell-free.
In data set [11] the target is T1, Sterol 14-alpha demethylase. Kind of data set: Inhibition of Trypanosoma cruzi Tulahuen C4 CYP51 expressed in Escherichia coli HMS174 using [3H]-sterol as substrate in presence of NADPH by reversed phase HPLC analysis.
The subject of another data set is Toxoplasma gondii. Kind of data set: Antiparasitic activity against Toxoplasma gondii RH transfected with fluorescent transgene dTom. It counts as functional, organism-based.
A further data set concerns Leishmania donovani. Kind of data set: Antileishmanial activity against Leishmania donovani MHOM/ET/67/L82 amastigotes assessed as growth inhibition after 72 hrs by plate reader based Alamar blue assay. It counts as functional, organism-based. As to conditions: MHOM/ET/67/L82, 72 h.
For the next data set, the system named is U2OS. Kind of data set: Cytotoxicity against human U2OS cells assessed as cell growth inhibition. It counts as cell-based.
Data set [12] has as its target Sterol 14-alpha demethylase (Trypanosoma cruzi (strain CL Brener)) (UniProt Q7Z1V1). The data set is described as §1.
Data set [13] in a line: Ratio of IC50 for antiprotozoal activity against Trypanosoma brucei rhodesiense STIB900 […] assessed as growth inhibition after 72 hrs by Alamar Blue dye-based fluorometric analysis to IC50 for antitrypanosomal activity against Trypanosoma cruzi Tulahuen C4 trypomastigotes infected in rat L6 cells measured after 96 hrs by inverted microscopy analysis. It counts as functional.

Data set [14] is described as follows: Ratio of IC50 for antiprotozoal activity against Plasmodium falciparum NF54 assessed as reduction in [3H]hypoxanthine incorporation preincubated for 48 hrs followed by [3H]hypoxanthine addition and measured after 24 hrs by liquid scintillation counting method to IC50 for antitrypanosomal activity against Trypanosoma cruzi Tulahuen C4 trypomastigotes infected in rat L6 cells measured after 96 hrs …. The format is functional.

A short description of data set [15]: Kinetic solubility in 0.01M HCl at pH 2 by nephelometry. To be noted: read-out: Kinetic_solubility.

Each structure is given as a SMILES string. In brackets after ≈: the same amount, converted by molar mass. Activity calls are given as the source filed them. The calls are words filed in the database; no cut-off is given here.

T1 sequence (Q7Z1V1 whole entry): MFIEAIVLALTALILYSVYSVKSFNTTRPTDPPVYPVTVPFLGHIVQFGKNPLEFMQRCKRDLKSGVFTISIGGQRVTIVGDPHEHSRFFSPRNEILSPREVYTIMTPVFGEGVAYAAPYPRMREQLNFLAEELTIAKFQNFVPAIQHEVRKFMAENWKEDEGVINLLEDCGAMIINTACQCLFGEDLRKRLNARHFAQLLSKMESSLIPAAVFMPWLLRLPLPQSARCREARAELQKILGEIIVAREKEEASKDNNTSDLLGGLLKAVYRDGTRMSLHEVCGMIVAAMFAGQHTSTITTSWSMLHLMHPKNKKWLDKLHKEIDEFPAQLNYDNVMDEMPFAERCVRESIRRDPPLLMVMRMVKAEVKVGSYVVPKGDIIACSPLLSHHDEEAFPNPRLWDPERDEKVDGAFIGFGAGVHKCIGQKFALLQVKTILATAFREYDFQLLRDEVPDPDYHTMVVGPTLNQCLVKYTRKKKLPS
Sterol 14-alpha demethylase (Trypanosoma cruzi (strain CL Brener)), sequence (Q7Z1V1 whole entry, looked up): as the sequence (Q7Z1V1 whole entry) above

As for `CC[C@@H]([C@H](C)O)n1ncn(-c2ccc(N3CCN(c4ccc(OC[C@@H]5CO[C@@](Cn6cncn6)(c6ccc(F)cc6F)C5)cc4)CC3)cc2)c1=O` [POSACONAZOLE], in the data set on Trypanosoma cruzi [1], the half-maximal inhibitory concentration (IC50) was found to be 0.005 µM.
Regarding `CN1CCN(c2ccc(S(=O)(=O)NCc3ccc(C(=O)Nc4cccnc4)cc3)cc2)CC1`, the CLint in data set [2] was 112 µL/min/mg. Besides, the IC50 is 0.36 µM with HEK-293T; > 50 µM in the data set with HFF; 32 µM in data set [4]; 0.007 µM in the data set with Trypanosoma cruzi [5]; 10 µM in the data set on Plasmodium falciparum; > 50 µM in data set [8]. Also, the IC50 was 49 µM in data set [11], > 100 µM in the data set on Toxoplasma gondii, > 200 µM in the data set with Leishmania donovani and 0.15 µM in the data set with U2OS. In addition, the dissociation constant (Kd) in [3] worked out at 1.32 µM. This compound had a logD in data set [6] of 2.8. For the same compound, the microsomal CLint in [7] was 45 µL/min/mg. In addition, the solubility kinetic in data set [9] is 25 to 50 µg/mL (≈ 53.7 to 107 µM). Besides, in data set [10], the PPB was found to be 85.2%.
Take `Cc1ncccc1NC(=O)c1ccc(CNS(=O)(=O)c2ccc(N3CCN(C)CC3)cc2)cc1`: in [12], the result was inactive. In addition, the IC50 amounted to 65 µM with Trypanosoma cruzi [5] and 487 µM in data set [11].
Consider `CCOC(=O)N1CCN(c2ccc(S(=O)(=O)NCc3ccc(C(=O)Nc4cccnc4)cc3)cc2)CC1`, for which it took 46 µM to reach half-maximal inhibition with Trypanosoma cruzi [5] (IC50).
For `O=C(Nc1cccnc1)c1ccc(CNS(=O)(=O)c2ccc(N3CCNCC3)cc2)cc1`, in the data set with Trypanosoma cruzi [5], the IC50 was 69 µM.
In the data set with Trypanosoma cruzi [5], `CN1CCN(c2ccc(C(=O)NCc3ccc(C(=O)Nc4cccnc4)cc3)cc2)CC1` gave an IC50 of 120 µM.
In the data set on Trypanosoma cruzi [5], `O=C(Nc1cccnc1)c1ccc(CNS(=O)(=O)c2ccc(N3CCC(O)CC3)cc2)cc1` had an IC50 of 120 µM.
On to `C[C@@H]1CN(c2ccc(S(=O)(=O)NCc3ccc(C(=O)Nc4cccnc4)cc3)cc2)C[C@H](C)N1`, for which, in the data set on Trypanosoma cruzi [5], the midpoint of inhibition, the IC50, lay at 130 µM.
The same measure, in the same setting: for `O=C(Nc1cccnc1)c1ccc(CNS(=O)(=O)c2ccc(N3CCCCC3)cc2)cc1` the value was 110 µM; for `CN1CCN(c2ccc(S(=O)(=O)NCc3ccc(C(=O)Nc4cncnc4)cc3)cc2)CC1`, 96 µM.
Consider `O=C(Nc1cccnc1)c1ccc(CNS(=O)(=O)c2ccc(N3CCC3)cc2)cc1`, for which the midpoint of inhibition in the data set with Trypanosoma cruzi [5], the IC50, lay at 8.3 µM.
Still for that read-out and setting: for `CN1CCN(c2ccc(S(=O)(=O)NC[C@H]3CC[C@H](C(=O)Nc4cccnc4)CC3)cc2)CC1` the value was 120 µM.
On to `CN1CCN(c2ccc(S(=O)(=O)NCc3ccc(-c4nc(-c5cccnc5)no4)cc3)cc2)CC1`, for which the CLint was 677 µL/min/mg in [2] and 535 µL/min/mg in [7] (microsomes, 1 h). Also, the IC50 was 42 µM with HEK-293T; > 50 µM with HFF; 3.4 µM in data set [4]; 1.2 µM with Trypanosoma cruzi [5]; 5.8 µM with Plasmodium falciparum; > 50 µM in data set [8]. The results for the IC50 in the data set with Toxoplasma gondii, in the data set with Leishmania donovani and in the data set on U2OS were 21 µM, 49 µM and 28 µM, respectively. In data set [6], this compound yielded a logD of 4.1. Moreover, in data set [9], the solubility kinetic lay in the range of 25 to 50 µg/mL (≈ 51 to 102 µM).
On to `CN1CCN(c2ccc(S(=O)(=O)NCc3ccc(C(=O)Nc4ccc(C#N)nc4)cc3)cc2)CC1`, for which it took 100 µM to reach half-maximal inhibition in the data set with Trypanosoma cruzi [5] (IC50).
In the data set on Trypanosoma cruzi [5], `Cc1ccc(NC(=O)c2ccc(CNS(=O)(=O)c3ccc(N4CCN(C)CC4)cc3)cc2)cn1` yielded an IC50 of 88 µM.
Same read-out and setting: for `CN1CCN(c2ccc(S(=O)(=O)NCc3ccc(C(=O)Nc4ccncc4)cc3)cc2)CC1` the value was 28 µM.
For the compound `O=C(Nc1cccnc1)c1ccc(CNS(=O)(=O)c2ccc(N3CCOCC3)cc2)cc1`, the CLint in data set [2] worked out at 200 µL/min/mg. Besides, the IC50 in the data set with HEK-293T was 0.95 µM; in the data set on HFF it was 2 µM; in data set [4] it was 25 µM; with Trypanosoma cruzi [5], 2.1 µM; with Plasmodium falciparum, 21 µM; in data set [8] it was > 50 µM. Also, the results for the IC50 in the data set on Toxoplasma gondii, in the data set on Leishmania donovani and in the data set on U2OS were > 100 µM, 180 µM and 0.16 µM, respectively. The “Ratio IC50” value in data set [13] and in [14] was 10 in each case. In addition, in data set [6], the logD was found to be 2.6. Moreover, in [7], the microsomal CLint worked out at 69 µL/min/mg. The solubility kinetic in data set [9] fell in the range of 12.5 to 25 µg/mL (≈ 27.6 to 55.2 µM); in [15], 50 to 100 µg/mL (≈ 110 to 221 µM). Also, the PPB in data set [10] is recorded as 76.2%.
In the case of `CN1CCN(c2ccc(S(=O)(=O)NCc3ccc(C(=O)Nc4cnccn4)cc3)cc2)CC1`, 17 µM corresponded to half-maximal inhibition in the data set with Trypanosoma cruzi [5] (IC50).
Same read-out and setting: for `Cc1ccc(NC(=O)c2ccc(CNS(=O)(=O)c3ccc(N4CCN(C)CC4)cc3)cc2)c(C)n1` the value was 110 µM.

The term IC50 denotes the concentration needed to halve the response being measured. What is called Kd is a measure of binding affinity in units of concentration. The term logD denotes the decadic logarithm of the distribution of all forms, ionised or not, between an organic phase and buffer at a given pH. Read a high logD as a more lipophilic compound. In general, microsomal CLint refers to the capacity of the preparation to metabolise the compound, expressed as a volume cleared per time.
